Measurements: patent US20240043404A1 (AbbVie Inc., priority 2009, published 2024)

Tested on: RS4;11 cells
Assay: RS4;11 cell viability assay (CellTiter Glo);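 note: acute lymphoblastic leukemia line RS4,11, EC50 derived from percentage of viable cells after treatment relative to untreated controls, cell killing taken as a measure of Bcl-2 inhibition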
Type: cell-based, human
Settings: Homo sapiens, RS4-11, 48 h, 50,000 cells per well, 10% human serum, 48 hours; read-out: RS4; 11 EC50 Values
Description: The acute lymphoblastic leukemia (ALL) cell line RS4;11 was used as the primary human cell line to assess the cellular activity of Bcl-2 selective agents in vitro and their efficacy in vivo.
Cell cytotoxicity EC50 values were assessed using CellTiter Glo (Promega) according to the manufacturer's recommendations. The EC50 values were determined as a percentage of viable cells following treatment compared to the untreated control cells.

| Structure (SMILES) | EC50 [nM] |
| --- | --- |
| CC(=O)N1CCC(CNc2ccc(S(=O)(=O)NC(=O)c3ccc(N4CCN(CC5=C(c6ccc(Cl)cc6)CC(C)(C)CC5)CC4)cc3Oc3cnc4[nH]ccc4c3)cc2[N+](=O)[O-])C1 (stereo not drawn) [Example 153, N-[(4-{[(1-acetylpyrrolidin-3-yl)methyl]amino}-3-nitrophenyl)sulfonyl]-4-(4-{[2-(4-chlorophenyl)-4,4-dimethylcyclohex-1-en-1-yl]methyl}piperazin-1-yl)-2-(1H-pyrrolo[2,3-b]pyridin-5-yloxy)benzamide] | 17.2 |
| CC1(C)CCC(CN2CCN(c3ccc(C(=O)NS(=O)(=O)c4ccc(NC[C@H]5CC[C@@H](O)C5)c([N+](=O)[O-])c4)c(Oc4cnc5[nH]ccc5c4)c3)CC2)=C(c2ccc(Cl)cc2)C1 [Example 158, 4-(4-{[2-(4-chlorophenyl)-4,4-dimethylcyclohex-1-en-1-yl]methyl}piperazin-1-yl)-N-{[4-({[(1S,3R)-3-hydroxycyclopentyl]methyl}amino)-3-nitrophenyl]sulfonyl}-2-(1H-pyrrolo[2,3-b]pyridin-5-yloxy)benzamide] | 17.9 |
| CC1(C)CCC(CN2CCN(c3ccc(C(=O)NS(=O)(=O)c4ccc(NC[C@@H]5CC[C@H](O)C5)c([N+](=O)[O-])c4)c(Oc4cnc5[nH]ccc5c4)c3)CC2)=C(c2ccc(Cl)cc2)C1 [Example 159, 4-(4-{[2-(4-chlorophenyl)-4,4-dimethylcyclohex-1-en-1-yl]methyl}piperazin-1-yl)-N-{[4-({[(1R,3S)-3-hydroxycyclopentyl]methyl}amino)-3-nitrophenyl]sulfonyl}-2-(1H-pyrrolo[2,3-b]pyridin-5-yloxy)benzamide] | 11.8 |
| CC1(C)CCC(CN2CCN(c3ccc(C(=O)NS(=O)(=O)c4ccc(N[C@H]5CCCNC5=O)c([N+](=O)[O-])c4)c(Oc4cnc5[nH]ccc5c4)c3)CC2)=C(c2ccc(Cl)cc2)C1 [Example 160, 4-(4-{[2-(4-chlorophenyl)-4,4-dimethylcyclohex-1-en-1-yl]methyl}piperazin-1-yl)-N-[(3-nitro-4-{[(3S)-2-oxopiperidin-3-yl]amino}phenyl)sulfonyl]-2-(1H-pyrrolo[2,3-b]pyridin-5-yloxy)benzamide] | 83.6 |
| CC1(C)CCC(CN2CCN(c3ccc(C(=O)NS(=O)(=O)c4ccc(NCC5CN(C(CF)CF)C5)c([N+](=O)[O-])c4)c(Oc4cnc5[nH]ccc5c4)c3)CC2)=C(c2ccc(Cl)cc2)C1 [Example 161, 4-(4-{[2-(4-chlorophenyl)-4,4-dimethylcyclohex-1-en-1-yl]methyl}piperazin-1-yl)-N-({4-[({1-[2-fluoro-1-(fluoromethyl)ethyl]azetidin-3-yl}methyl)amino]-3-nitrophenyl}sulfonyl)-2-(1H-pyrrolo[2,3-b]pyridin-5-yloxy)benzamide] | 34.6 |
| CC1(C)CCC(CN2CCN(c3ccc(C(=O)NS(=O)(=O)c4ccc(NCC5CN(C6COC6)C5)c([N+](=O)[O-])c4)c(Oc4cnc5[nH]ccc5c4)c3)CC2)=C(c2ccc(Cl)cc2)C1 [Example 162, 4-(4-{[2-(4-chlorophenyl)-4,4-dimethylcyclohex-1-en-1-yl]methyl}piperazin-1-yl)-N-[(3-nitro-4-{[(1-oxetan-3-ylazetidin-3-yl)methyl]amino}phenyl)sulfonyl]-2-(1H-pyrrolo[2,3-b]pyridin-5-yloxy)benzamide] | 13 |
| CC1(C)CCC(CN2CCN(c3ccc(C(=O)NS(=O)(=O)c4ccc(NCC5CCN(C6CC6)CC5)c([N+](=O)[O-])c4)c(Oc4cnc5[nH]ccc5c4)c3)CC2)=C(c2ccc(Cl)cc2)C1 [Example 164, 4-(4-{[2-(4-chlorophenyl)-4,4-dimethylcyclohex-1-en-1-yl]methyl}piperazin-1-yl)-N-[(4-{[(1-cyclopropylpiperidin-4-yl)methyl]amino}-3-nitrophenyl)sulfonyl]-2-(1H-pyrrolo[2,3-b]pyridin-5-yloxy)benzamide] | 14.8 |
| CC1(C)CCC(CN2CCN(c3ccc(C(=O)NS(=O)(=O)c4ccc(OCC5(F)CCN(C6COC6)CC5)c([N+](=O)[O-])c4)c(Oc4cnc5[nH]ccc5c4)c3)CC2)=C(c2ccc(Cl)cc2)C1 [Example 167, 4-(4-{[2-(4-chlorophenyl)-4,4-dimethylcyclohex-1-en-1-yl]methyl}piperazin-1-yl)-N-({4-[(4-fluoro-1-oxetan-3-ylpiperidin-4-yl)methoxy]-3-nitrophenyl}sulfonyl)-2-(1H-pyrrolo[2,3-b]pyridin-5-yloxy)benzamide] | 0.93 |

The remaining lines, values ahead:

| EC50 [nM] | Structure (SMILES) |
| --- | --- |
| 33.7 | CC1(C)CCC(CN2CCN(c3ccc(C(=O)NS(=O)(=O)c4ccc(NC5CN(C(CF)CF)C5)c([N+](=O)[O-])c4)c(Oc4cnc5[nH]ccc5c4)c3)CC2)=C(c2ccc(Cl)cc2)C1 [Example 151, 4-(4-{[2-(4-chlorophenyl)-4,4-dimethylcyclohex-1-en-1-yl]methyl}piperazin-1-yl)-N-{[4-({1-[2-fluoro-1-(fluoromethyl)ethyl]azetidin-3-yl}amino)-3-nitrophenyl]sulfonyl}-2-(1H-pyrrolo[2,3-b]pyridin-5-yloxy)benzamide] |
| 20.4 | CC1(C)CCC(CN2CCN(c3ccc(C(=O)NS(=O)(=O)c4ccc(NCC5CCN(S(C)(=O)=O)C5)c([N+](=O)[O-])c4)c(Oc4cnc5[nH]ccc5c4)c3)CC2)=C(c2ccc(Cl)cc2)C1 (stereo not drawn) [Example 152, 4-(4-{[2-(4-chlorophenyl)-4,4-dimethylcyclohex-1-en-1-yl]methyl}piperazin-1-yl)-N-{[4-({[1-(methylsulfonyl)pyrrolidin-3-yl]methyl}amino)-3-nitrophenyl]sulfonyl}-2-(1H-pyrrolo[2,3-b]pyridin-5-yloxy)benzamide] |
| 26.5 | CC(=O)N1CC[C@@H](Nc2ccc(S(=O)(=O)NC(=O)c3ccc(N4CCN(CC5=C(c6ccc(Cl)cc6)CC(C)(C)CC5)CC4)cc3Oc3cnc4[nH]ccc4c3)cc2[N+](=O)[O-])C1 [Example 154, N-[(4-{[(3R)-1-acetylpyrrolidin-3-yl]amino}-3-nitrophenyl)sulfonyl]-4-(4-{[2-(4-chlorophenyl)-4,4-dimethylcyclohex-1-en-1-yl]methyl}piperazin-1-yl)-2-(1H-pyrrolo[2,3-b]pyridin-5-yloxy)benzamide] |
| 594 | COCC(C)(C)CNc1ccc(S(=O)(=O)NC(=O)c2ccc(N3CCN(CC4=C(c5ccc(Cl)cc5)CC(C)(C)CC4)CC3)cc2Oc2cnc3[nH]ccc3c2)cc1[N+](=O)[O-] [Example 155, 4-(4-{[2-(4-chlorophenyl)-4,4-dimethylcyclohex-1-en-1-yl]methyl}piperazin-1-yl)-N-({4-[(3-methoxy-2,2-dimethylpropyl)amino]-3-nitrophenyl}sulfonyl)-2-(1H-pyrrolo[2,3-b]pyridin-5-yloxy)benzamide] |
| 8.05 | CC1(C)CCC(CN2CCN(c3ccc(C(=O)NS(=O)(=O)c4ccc(NC[C@@H]5CC[C@@H](O)C5)c([N+](=O)[O-])c4)c(Oc4cnc5[nH]ccc5c4)c3)CC2)=C(c2ccc(Cl)cc2)C1 [Example 156, 4-(4-{[2-(4-chlorophenyl)-4,4-dimethylcyclohex-1-en-1-yl]methyl}piperazin-1-yl)-N-{[4-({[(1R,3R)-3-hydroxycyclopentyl]methyl}amino)-3-nitrophenyl]sulfonyl}-2-(1H-pyrrolo[2,3-b]pyridin-5-yloxy)benzamide] |
| 10.9 | CC1(C)CCC(CN2CCN(c3ccc(C(=O)NS(=O)(=O)c4ccc(NC[C@H]5CC[C@H](O)C5)c([N+](=O)[O-])c4)c(Oc4cnc5[nH]ccc5c4)c3)CC2)=C(c2ccc(Cl)cc2)C1 [Example 157, 4-(4-{[2-(4-chlorophenyl)-4,4-dimethylcyclohex-1-en-1-yl]methyl}piperazin-1-yl)-N-{[4-({[(1S,3S)-3-hydroxycyclopentyl]methyl}amino)-3-nitrophenyl]sulfonyl}-2-(1H-pyrrolo[2,3-b]pyridin-5-yloxy)benzamide] |
| 4.32 | CC1(C)CCC(CN2CCN(c3ccc(C(=O)NS(=O)(=O)c4ccc(NCC5CCN(C6COC6)CC5)c([N+](=O)[O-])c4)c(Oc4cnc5[nH]ccc5c4)c3)CC2)=C(c2ccc(Cl)cc2)C1 [Example 163, 4-(4-{[2-(4-chlorophenyl)-4,4-dimethylcyclohex-1-en-1-yl]methyl}piperazin-1-yl)-N-[(3-nitro-4-{[(1-oxetan-3-ylpiperidin-4-yl)methyl]amino}phenyl)sulfonyl]-2-(1H-pyrrolo[2,3-b]pyridin-5-yloxy)benzamide] |
| 5.1 | CC1(C)CCC(CN2CCN(c3ccc(C(=O)NS(=O)(=O)c4ccc(NCC5CN(CCF)CCO5)c([N+](=O)[O-])c4)c(Oc4cnc5[nH]ccc5c4)c3)CC2)=C(c2ccc(Cl)cc2)C1 (stereo not drawn) [Example 165, 4-(4-{[2-(4-chlorophenyl)-4,4-dimethylcyclohex-1-en-1-yl]methyl}piperazin-1-yl)-N-{[4-({[4-(2-fluoroethyl)morpholin-2-yl]methyl}amino)-3-nitrophenyl]sulfonyl}-2-(1H-pyrrolo[2,3-b]pyridin-5-yloxy)benzamide] |
| 11.8 | CC1(C)CCC(CN2CCN(c3ccc(C(=O)NS(=O)(=O)c4ccc(NCC5CN(CC(F)F)CCO5)c([N+](=O)[O-])c4)c(Oc4cnc5[nH]ccc5c4)c3)CC2)=C(c2ccc(Cl)cc2)C1 (stereo not drawn) [Example 166, 4-(4-{[2-(4-chlorophenyl)-4,4-dimethylcyclohex-1-en-1-yl]methyl}piperazin-1-yl)-N-{[4-({[4-(2,2-difluoroethyl)morpholin-2-yl]methyl}amino)-3-nitrophenyl]sulfonyl}-2-(1H-pyrrolo[2,3-b]pyridin-5-yloxy)benzamide] |
| 88.7 | CC1(C)CCC(CN2CCN(c3ccc(C(=O)NS(=O)(=O)c4ccc(OC[C@@H]5CC(F)(F)CN5C5COC5)c([N+](=O)[O-])c4)c(Oc4cnc5[nH]ccc5c4)c3)CC2)=C(c2ccc(Cl)cc2)C1 [Example 168, 4-(4-{[2-(4-chlorophenyl)-4,4-dimethylcyclohex-1-en-1-yl]methyl}piperazin-1-yl)-N-[(4-{[(2S)-4,4-difluoro-1-oxetan-3-ylpyrrolidin-2-yl]methoxy}-3-nitrophenyl)sulfonyl]-2-(1H-pyrrolo[2,3-b]pyridin-5-yloxy)benzamide] |
